The text below walks through data of ChEMBL document CHEMBL1144926, “Structure-activity relationships of dynorphin a analogues modified in the address sequence” (J Med Chem, 2003).

For assay [1], the target named is T1, Kappa-type opioid receptor (Homo sapiens, UniProt P41145). In words: biochemical. The class given is cell-based, CHO.
Assay [2] deals with T1, Kappa-type opioid receptor. The conditions noted are these: 10 uM.
Assay [3] addresses Delta-type opioid receptor (Homo sapiens, UniProt P41143). In words: In vitro binding affinity to human Opioid receptor delta 1 on CHO cell membranes using [3H]diprenorphine displacement.
A further assay deals with Mu-type opioid receptor (Homo sapiens, UniProt P35372). In words: biochemical. The class given is cell-based, CHO.
Mu-type opioid receptor, sequence (P35372 whole entry): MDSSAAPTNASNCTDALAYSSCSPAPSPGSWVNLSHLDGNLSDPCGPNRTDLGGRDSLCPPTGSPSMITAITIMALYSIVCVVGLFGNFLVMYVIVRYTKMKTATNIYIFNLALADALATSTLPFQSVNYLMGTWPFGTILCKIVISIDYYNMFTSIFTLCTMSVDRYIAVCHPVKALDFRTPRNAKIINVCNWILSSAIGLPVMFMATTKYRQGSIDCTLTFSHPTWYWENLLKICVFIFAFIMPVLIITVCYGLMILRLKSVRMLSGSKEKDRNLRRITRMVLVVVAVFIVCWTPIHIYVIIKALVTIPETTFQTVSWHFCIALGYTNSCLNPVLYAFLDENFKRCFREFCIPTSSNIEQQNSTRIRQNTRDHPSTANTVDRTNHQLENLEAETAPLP
Assay [4] has as its target Mu-type opioid receptor (Cavia porcellus) (UniProt P97266). The note with it: Ileum.
The target of assay [5] is T2, Opioid receptors; mu/kappa/delta (Homo sapiens) (UniProt P41145+P41143+P35372). Description: Binding affinity towards human kappa,mu,delta receptors was calculated as the ratio; 1/34/69. The class given is protein assay.
T2 sequence (P35372 whole entry, looked up): as the sequence (P35372 whole entry) above
T2 sequence (P41143 whole entry, looked up): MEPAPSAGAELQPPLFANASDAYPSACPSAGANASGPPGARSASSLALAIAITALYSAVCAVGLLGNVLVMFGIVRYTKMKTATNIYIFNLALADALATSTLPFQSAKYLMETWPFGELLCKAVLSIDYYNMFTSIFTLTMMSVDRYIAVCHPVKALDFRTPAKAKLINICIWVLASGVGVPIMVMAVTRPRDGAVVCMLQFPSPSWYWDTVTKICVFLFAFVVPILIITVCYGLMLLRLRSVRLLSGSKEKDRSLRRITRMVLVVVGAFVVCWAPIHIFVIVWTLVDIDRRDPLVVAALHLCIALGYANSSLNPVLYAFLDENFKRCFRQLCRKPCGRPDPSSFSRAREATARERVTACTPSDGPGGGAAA
T2 sequence (P41145 whole entry, looked up): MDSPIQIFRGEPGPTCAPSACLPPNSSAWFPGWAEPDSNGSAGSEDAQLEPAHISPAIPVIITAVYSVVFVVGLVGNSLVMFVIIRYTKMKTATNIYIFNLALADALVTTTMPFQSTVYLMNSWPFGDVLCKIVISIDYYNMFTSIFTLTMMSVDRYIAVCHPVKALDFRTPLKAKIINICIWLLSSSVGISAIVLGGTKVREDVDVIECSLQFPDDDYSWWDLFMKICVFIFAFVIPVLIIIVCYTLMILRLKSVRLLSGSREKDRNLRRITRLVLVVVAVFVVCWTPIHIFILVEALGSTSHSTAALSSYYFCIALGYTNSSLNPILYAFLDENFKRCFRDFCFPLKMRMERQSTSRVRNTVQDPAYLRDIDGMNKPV
The target in assay [6] is T1, Kappa-type opioid receptor. Description: Antagonistic activity in theOpioid receptor kappa 1 -mediated [35S]GTP-gamma-S, binding assay against 50 nM U-50,488. The class given is functional. In general terms: GTPγS resists hydrolysis and so accumulates on activated G proteins.
Assay [7] deals with T2, Opioid receptors; mu/kappa/delta (Homo sapiens). In words: Binding affinity towards human kappa,mu,delta receptors was calculated as the ratio; 1/560/1200. The class given is protein assay.
Assay [8] shares this target. Description: Binding affinity towards human kappa,mu,delta receptors was calculated as the ratio; 1/3.4/2.3. Format: protein assay.
The target is the same in assay [9]. Description: Binding affinity towards human kappa,mu,delta receptors was calculated as the ratio; 1/360/360. Format: protein assay.
Assay [10] has as its target T1, Kappa-type opioid receptor. Description: Antagonistic activity in the Opioid receptor kappa 1 -mediated [35S]GTP-gamma-S, binding assay against 50 nM U-50,488. The class given is functional.
In assay [11] the target is T2, Opioid receptors; mu/kappa/delta (Homo sapiens). In words: Binding affinity towards human kappa,mu,delta receptors was calculated as the ratio; 1/620/1300. Format: protein assay.
Assay [12] has as its target T1, Kappa-type opioid receptor. The class given is functional.

Non-standard residues stand in square brackets, D forms with d. Residues, ends and D or L forms follow the SMILES beside them. Nle = CCCC[C@H](N)C(=O)O A value given as a limit tells only on which side of the number the result lay.

Mu-type opioid receptor (Cavia porcellus), sequence (P97266 whole entry): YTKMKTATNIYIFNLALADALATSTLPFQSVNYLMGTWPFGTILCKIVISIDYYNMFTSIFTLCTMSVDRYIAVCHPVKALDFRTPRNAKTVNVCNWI
T1 sequence (P41145 whole entry): as the sequence (P41145 whole entry, looked up) above
Delta-type opioid receptor, sequence (P41143 whole entry): as the sequence (P41143 whole entry, looked up) above

As for `CC[C@H](C)[C@H](NC(=O)[C@H](CCCN=C(N)N)NC(=O)[C@H](CCCN=C(N)N)NC(=O)[C@H](CC(C)C)NC(=O)[C@H](Cc1ccccc1)NC(=O)CNC(=O)CNC(=O)[C@@H](N)Cc1ccc(O)cc1)C(=O)N[C@@H](CCCN=C(N)N)C(=O)N1CCC[C@H]1C(=O)N[C@@H](CCCCN)C(N)=O`, the inhibition constant Ki (commonly a dissociation constant, usually derived from enzyme kinetics or from competition with a known ligand) in assay [1] came out at 0.059 nM. The compound further returned a Max stimulation in assay [2] of 73%.

With H-YGGFLRRIR-OH, the Ki in [3] was 9.8 nM; in [1] it was 2.5 nM; at Mu-type opioid receptor, 23.8 nM.

In assay [4], `Oc1ccc2c3c1O[C@H]1c4[nH]c5c(c4C[C@@]4(O)[C@@H](C2)N(CC2CC2)CC[C@]314)C[C@@]1(O)[C@H]2Cc3ccc(O)c4c3[C@@]1(CCN2CC1CC1)[C@H]5O4` came in with a Ke of 0.572 nM.

As for `CC[C@H](C)[C@H](NC(=O)[C@H](CCCNC(=N)N)NC(=O)[C@H](CCCNC(=N)N)NC(=O)[C@H](CC(C)C)NC(=O)[C@H](Cc1ccccc1)NC(=O)CNC(=O)CNC(=O)[C@@H](N)Cc1ccc(O)cc1)C(=O)N[C@@H](CCCNC(=N)N)C(=O)N1CCC[C@H]1C(=O)N[C@@H](CCCCN)C(=O)N[C@@H](CC(C)C)C(=O)N[C@@H](CCCCN)C(=O)O`, the Ki in assay [1] was determined as 0.23 nM.

In the case of `CC[C@H](C)[C@H](NC(=O)[C@H](CCCN=C(N)N)NC(=O)[C@H](CCCN=C(N)N)NC(=O)[C@H](CC(C)C)NC(=O)[C@H](Cc1ccccc1)NC(=O)CNC(=O)CNC(=O)[C@@H](N)Cc1ccc(O)cc1)C(=O)N[C@@H](CCCN=C(N)N)C(=O)N1CCC[C@@H]1C(=O)O`, the Ki ratio entry in [5] is “kappa/mu/delta”.

Turning to `CC[C@H](C)[C@H](NC(=O)[C@H](CCCNC(=N)N)NC(=O)[C@H](CCCNC(=N)N)NC(=O)[C@H](CC(C)C)NC(=O)[C@H](Cc1ccccc1)NC(=O)[C@@H]1CCCN1C(=O)CNC(=O)[C@@H](N)Cc1ccc(O)cc1)C(=O)N[C@@H](CCCNC(=N)N)C(=O)N1CCC[C@H]1C(=O)N[C@@H](CCCCN)C(N)=O`, the values for the Ki (in assay [1]; on Mu-type opioid receptor) were 2.4 nM and 5250 nM, respectively. Also, the IC50 (usually the point on the concentration scale where inhibition reaches its midpoint) in assay [6] is 440 nM.

In the case of `CC[C@H](C)[C@H](NC(=O)[C@H](CCCN=C(N)N)NC(=O)[C@H](CCCN=C(N)N)NC(=O)[C@H](CC(C)C)NC(=O)[C@H](Cc1ccccc1)NC(=O)[C@@H]1CCCN1C(=O)CNC(=O)[C@@H](N)Cc1ccc(O)cc1)C(=O)N[C@@H](CCCN=C(N)N)C(=O)N1CCC[C@H]1C(N)=O`, the Ki came to 13500 nM in assay [3] (cho), 10 nM in assay [1] (cho) and 6200 nM at Mu-type opioid receptor (cho).

For the compound H-YGPFLRR-NH2, the Ki was 15100 nM in assay [3], 60.3 nM in [1] and 12600 nM on Mu-type opioid receptor.

In the case of H-YGPFLRRIR-NH2, the Ki ratio entry in assay [7] is reported as “kappa/delta/mu”. For the same compound, the inhibition constant Ki came to 13200 nM in [3], 10.7 nM in assay [1] and 6030 nM at Mu-type opioid receptor.

In the case of H-YGPFLR-NH2 [listing 1 of 2 here], in [8], the Ki ratio result is on record as “kappa/delta/mu”.

As to `CC(C)C[C@H](NC(=O)[C@H](Cc1ccccc1)NC(=O)[C@@H]1CCCN1C(=O)CNC(=O)[C@@H](N)Cc1ccc(O)cc1)C(=O)N[C@@H](CCCN=C(N)N)C(=O)N[C@@H](CCCN=C(N)N)C(=O)N[C@@H](CCCN=C(N)N)C(=O)N[C@@H](CCCN=C(N)N)C(=O)N1CCC[C@@H]1C(=O)N[C@@H](CCCCN)C(N)=O`, in assay [4], the Ke turned out to be 280 nM.

Consider `CCCC[C@H](NC(=O)[C@H](CC(C)C)NC(=O)[C@H](Cc1ccccc1)NC(=O)[C@@H]1CCCN1C(=O)CNC(=O)[C@@H](N)Cc1ccc(O)cc1)C(=O)N[C@@H](CCCN=C(N)N)C(N)=O` (H-YGPFL[Nle]R-NH2), for which the Ki in [3] was 14100 nM; in assay [1], over 100000 nM; at Mu-type opioid receptor, over 100000 nM.

Consider `CC[C@H](C)[C@H](NC(=O)[C@H](CCCNC(=N)N)NC(=O)[C@H](CCCNC(=N)N)NC(=O)[C@H](CC(C)C)NC(=O)[C@H](Cc1ccccc1)NC(=O)CNC(=O)CNC(=O)[C@@H](N)Cc1ccc(O)cc1)C(=O)N[C@@H](CCCNC(=N)N)C(=O)N1CCC[C@H]1C(=O)O`, for which the Ki was found to be 24 nM in assay [3], 0.35 nM in assay [1] and 11.9 nM at Mu-type opioid receptor.

For the compound `CC[C@H](C)[C@H](NC(=O)[C@H](CCCN=C(N)N)NC(=O)[C@H](CCCN=C(N)N)NC(=O)[C@H](CC(C)C)NC(=O)[C@H](Cc1ccccc1)NC(=O)[C@@H]1CCCN1C(=O)CNC(=O)[C@@H](N)Cc1ccc(O)cc1)C(=O)N[C@@H](CCCN=C(N)N)C(=O)N1CCC[C@@H]1C(=O)N[C@@H](CCCCN)C(=O)O`, in [9], the Ki ratio entry is “kappa/mu/delta”.

On to `CC[C@H](C)[C@H](NC(=O)[C@H](CCCN=C(N)N)NC(=O)[C@H](CCCN=C(N)N)NC(=O)[C@H](CC(C)C)NC(=O)[C@H](Cc1ccccc1)NC(=O)CNC(=O)CNC(=O)[C@@H](N)Cc1ccc(O)cc1)C(=O)O`, for which the affinity at Mu-type opioid receptor, expressed as Ki, was 35.4 nM.

Regarding H-YGPFLR-NH2 [listing 2 of 2 here], the Ki amounted to 12600 nM in assay [3], 5600 nM in assay [1] and 19500 nM at Mu-type opioid receptor.

As for `CC[C@H](C)[C@H](NC(=O)[C@H](CCCNC(=N)N)NC(=O)[C@H](CCCNC(=N)N)NC(=O)[C@H](CC(C)C)NC(=O)[C@H](Cc1ccccc1)NC(=O)[C@@H]1CCCN1C(=O)CNC(=O)[C@@H](N)Cc1ccc(O)cc1)C(=O)N[C@@H](CCCNC(=N)N)C(=O)N1CCC[C@H]1C(=O)N[C@@H](CCCCN)C(=O)O`, the Ki in [3] (cho) turned out to be 15000 nM; in assay [1] (cho) it was 41.7 nM; at Mu-type opioid receptor (cho) it was 15100 nM.

As to `CC(C)C[C@H](NC(=O)[C@H](Cc1ccccc1)NC(=O)[C@@H]1CCCN1C(=O)CNC(=O)[C@@H](N)Cc1ccc(O)cc1)C(=O)N[C@@H](CCCN=C(N)N)C(=O)N[C@@H](CCCN=C(N)N)C(=O)N[C@@H](CCCN=C(N)N)C(N)=O`, the Ki in assay [3] is over 100000 nM; in assay [1] it was 6.61 nM; on Mu-type opioid receptor, 3100 nM. In assay [10], this compound returned a 50% inhibitory concentration (IC50) of 4000 nM.

In the case of `CC[C@H](C)[C@H](NC(=O)[C@H](CCCN=C(N)N)NC(=O)[C@H](CCCN=C(N)N)NC(=O)[C@H](CC(C)C)NC(=O)[C@H](Cc1ccccc1)NC(=O)[C@@H]1CCCN1C(=O)CNC(=O)[C@@H](N)Cc1ccc(O)cc1)C(=O)N[C@@H](CCCN=C(N)N)C(=O)N1CCC[C@@H]1C(N)=O`, the Ki ratio result in [11] was “kappa/mu/delta”.

On to `CC[C@H](C)[C@H](NC(=O)[C@H](CCCNC(=N)N)NC(=O)[C@H](CCCNC(=N)N)NC(=O)[C@H](CC(C)C)NC(=O)[C@H](Cc1ccccc1)NC(=O)[C@@H]1CCCN1C(=O)CNC(=O)[C@@H](N)Cc1ccc(O)cc1)C(=O)N[C@@H](CCCNC(=N)N)C(=O)N[C@@H](CCCNC(=N)N)C(=O)N[C@@H](CCCCN)C(N)=O`, for which the Ki was 3230 nM in assay [3] (cho), 1.2 nM in assay [1] (cho) and 1660 nM at Mu-type opioid receptor (cho). This compound also yielded an IC50 in assay [12] of 410 nM.

For H-YGPFLRRI-NH2, the Ki in [3] turned out to be 16200 nM; in assay [1] it was 79.4 nM; on Mu-type opioid receptor, 16200 nM.

Consider H-YGPFL-NH2, for which the Ki is 18600 nM in assay [3], over 10000 nM in [1] and 15500 nM at Mu-type opioid receptor.

In the case of `CC(C)C[C@H](NC(=O)[C@H](Cc1ccccc1)NC(=O)CNC(=O)CNC(=O)[C@@H](N)Cc1ccc(O)cc1)C(=O)N[C@@H](CCCNC(=N)N)C(=O)N[C@@H](CCCNC(=N)N)C(=O)O`, the Ki was determined as 9.7 nM in assay [3] and 38 nM on Mu-type opioid receptor.

As for `CC(C)C[C@H](NC(=O)[C@H](Cc1ccccc1)NC(=O)[C@@H]1CCCN1C(=O)CNC(=O)[C@@H](N)Cc1ccc(O)cc1)C(=O)N[C@@H](CCCNC(=N)N)C(=O)N[C@@H](CCCNC(=N)N)C(=O)N[C@@H](CCCNC(=N)N)C(=O)N[C@@H](CCCNC(=N)N)C(=O)N1CCC[C@H]1C(=O)N[C@@H](CCCCN)C(N)=O`, the Ki worked out at 6760 nM in assay [3] (cho), 0.44 nM in assay [1] (cho) and 2750 nM at Mu-type opioid receptor (cho). Besides, the midpoint of inhibition in assay [12], the IC50, lay at 340 nM.

`CC[C@H](C)[C@H](NC(=O)[C@H](CCCNC(=N)N)NC(=O)[C@H](CCCNC(=N)N)NC(=O)[C@H](CC(C)C)NC(=O)[C@H](Cc1ccccc1)NC(=O)[C@@H]1CCCN1C(=O)CNC(=O)[C@@H](N)Cc1ccc(O)cc1)C(=O)N[C@@H](CCCNC(=N)N)C(=O)N[C@@H](CCCNC(=N)N)C(N)=O`: the Ki stood at 6030 nM in [3] (cho), 3.39 nM in assay [1] (cho) and 2340 nM at Mu-type opioid receptor (cho). In assay [12], this compound returned an IC50 of 1260 nM.

As for H-YGGFLR-OH, the Ki in assay [3] amounted to 9.1 nM; in [1] it was 404 nM; on Mu-type opioid receptor, 40.6 nM.

Turning to `CC[C@H](C)[C@H](NC(=O)[C@H](CCCN=C(N)N)NC(=O)[C@H](CCCN=C(N)N)NC(=O)[C@H](CC(C)C)NC(=O)[C@H](Cc1ccccc1)NC(=O)[C@@H]1CCCN1C(=O)CNC(=O)[C@@H](N)Cc1ccc(O)cc1)C(=O)N[C@@H](CCCN=C(N)N)C(=O)N1CCC[C@@H]1C(=O)N[C@@H](CCCCN)C(N)=O`, the Ke in assay [4] came to 494 nM.
